According to PubChem BioAssay AID1605 (NINDS Approved Drug Screening Program, 2009):

Test system: Cells expressing FALS mutant SOD1, cell death protection
Assay: protection against FALS mutant SOD1 cell death, familial ALS SOD1 mutant (AID 1605)

Row | Compound | EC50 [µM]
1 | CN1CC[C@]23c4c5ccc(O)c4O[C@H]2C(=O)CCC3[C@H]1C5 (some centres not stated) | 3410
2 | CN(C)c1ccc(O)c2c1C[C@H]1C[C@H]3[C@H](N(C)C)C(=O)C(C(N)=O)=C(O)[C@@]3(O)C(=O)C1=C2O | 14.4
3 | COc1cc(C)c2c(=O)cc(-c3ccccc3)oc2c1 | 45.8
4 | NCC(CC(=O)O)c1ccc(Cl)cc1 (configuration not stated) | 0.38
5 | COc1ccc2[nH]cc(CCNC(C)=O)c2c1 | 178
6 | Nc1nc2ncc(CNc3ccc(C(=O)N[C@@H](CCC(=O)O)C(=O)O)cc3)nc2c(=O)[nH]1 | 785
7 | CN1C(=O)CN=C(c2ccccc2)c2cc(Cl)ccc21 | 118
8 | C[C@]12C=CC(=O)C=C1CCC1C2C(=O)C[C@@]2(C)C1CC[C@]2(O)C(=O)CO (some centres not stated) | 2610
9 | C1CNCCN1 | 7130
10 | CC[C@@H]1C(=O)OC[C@@H]1Cc1cncn1C | 3060
11 | Oc1cc(O)c2c(c1)O[C@H](c1ccc(O)c(O)c1)[C@@H](O)C2 | 73.1
12 | COC(=O)C1=C(C)NC(C)=C(C(=O)OC)C1c1ccccc1[N+](=O)[O-] | 28.9
13 | CC(N)Cc1ccc2c(c1)OCO2 (configuration not stated) | 2120
14 | O=C(OCC(O)CO)c1ccccc1Nc1ccnc2cc(Cl)ccc12 (configuration not stated) | 3200
15 | CN[C@@H]1[C@H](O)[C@H](NC)[C@H]2O[C@@]3(O)C(=O)C[C@@H](C)O[C@H]3OC2[C@H]1O (some centres not stated) | 0.0222
16 | O=[N+]([O-])c1cc([As](=O)(O)O)ccc1O | 71.9
17 | COC(=O)/C(=C1\OC(=O)C(c2ccccc2)C1=O)c1ccccc1 (configuration not stated) | 3940
18 | O=c1cc(-c2ccccc2)oc2cc(O)cc(O)c12 | 6.47
19 | CC[C@@H](CO)NC(=O)[C@@H]1C=C2c3cccc4[nH]cc(c34)C[C@H]2N(C)C1 | 2890

Row | Compound | EC50 [µM]
20 | Cc1ccc(C(=O)C(C)CN2CCCCC2)cc1 (configuration not stated) | 19.1
21 | C[C@H]1C(=O)O[C@@H]2CCN3CC=C(COC(=O)[C@](C)(O)[C@]1(C)O)[C@H]23 | 239
22 | CCn1cc(C(=O)O)c(=O)c2cc3c(cc21)OCO3 | 2.38
23 | CC/C(=C(/CC)c1ccc(O)cc1)c1ccc(O)cc1 | 0.0327
24 | CCC1(c2ccccc2)C(=O)NCNC1=O | 741
25 | O=C1O[C@@H](CO)[C@H](O)[C@@H](O)[C@@H]1O | 9.33
26 | Cc1cc(C2CCCCC2)n(O)c(=O)c1 | 30.9
27 | CCCC(=O)Nc1ccc(OCC(O)CNC(C)C)c(C(C)=O)c1 (configuration not stated) | 48.8
28 | CC(NC(=O)C(NC(=O)OCc1ccccc1)C(C)C)C(=O)NC(CC(=O)O)C(=O)OC(F)F (configuration not stated) | 916
29 | CCCC(C)C1(CC)C(=O)N=C(S)NC1=O (configuration not stated) | 29.9
30 | CCC(=O)c1c(O)cc(O)cc1O | 157
31 | NC(=O)NC1NC(=O)NC1=O (configuration not stated) | 0.0224
32 | O=C(O)CCC(=O)OC[C@@H](NC(=O)C(Cl)Cl)[C@H](O)c1ccc([N+](=O)[O-])cc1 | 1.1
33 | NCCC(O)C(=O)N[C@@H]1C[C@H](N)[C@@H](O[C@H]2O[C@H](CN)[C@@H](O)[C@H](O)[C@H]2N)[C@H](OC2O[C@H](CO)[C@H](O)[C@H]2O)[C@H]1O (some centres not stated) | 0.2
34 | NC[C@H]1O[C@H](O[C@H]2C(O[C@@H]3O[C@H](CO)[C@@H](O)[C@H]3O)[C@@H](O)[C@H](N)C[C@@H]2N)[C@H](N)[C@@H](O)[C@@H]1O (some centres not stated) | 5790
35 | CC(CCc1ccccc1)NC(C)C(O)c1ccc(O)cc1 (configuration not stated) | 76.9
36 | CN(C)/N=N/c1nc[nH]c1C(N)=O | 82
37 | CC(C)CC1NC(=O)CNC1=O (configuration not stated) | 0.0222
